Data taken from the supplement of paper PMC10307832.

Legend:
Experiment in all cases: relative viability (nuclei count vs DMSO), 5 days (fraction); higher = more cells survive
[1] = compound: CC(C)(C)c1cc(NC(=O)Nc2ccc(-c3cn4c(n3)sc3cc(OCCN5CCOCC5)ccc34)cc2)no1 [Quizartinib] + CS(=O)(=O)CCNCc1ccc(-c2ccc3ncnc(Nc4ccc(OCc5cccc(F)c5)c(Cl)c4)c3c2)o1 [Lapatinib] (partner 2 µM)
Method in brief: (§1)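 Lung cancer cell lines were pin-tool dosed in 1536-well plates on the day after seeding, with either a lone drug or a fixed anchor-drug dose plus five library-drug doses (not always all listed) in √10 steps. Nuclei were counted on 4× images after 5 days. Relative viability is the ratio of treated-well to vehicle-well nuclei counts, with each value a median of duplicate plates.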

[2] = compound: COCC[n+]1c2c(n(Cc3cnccn3)c1C)C(=O)c1ccccc1C2=O [YM155] + Cc1cc(Nc2cc(N3CCN(C)CC3)nc(Sc3ccc(NC(=O)C4CC4)cc3)n2)n[nH]1 [Tozasertib] (partner 0.1 µM)
Method in brief: as §1

[3] = compound: COCC[n+]1c2c(n(Cc3cnccn3)c1C)C(=O)c1ccccc1C2=O [YM155] + O=C(c1cc(Cc2n[nH]c(=O)c3ccccc23)ccc1F)N1CCN(C(=O)C2CC2)CC1 [Olaparib] (partner 8 µM)
Method in brief: as §1

[4] = compound: COCC[n+]1c2c(n(Cc3cnccn3)c1C)C(=O)c1ccccc1C2=O [YM155] + Cc1nc(NC(=O)N2CCC[C@H]2C(N)=O)sc1-c1ccnc(C(C)(C)C(F)(F)F)c1 [Alpelisib] (partner 2 µM)
Method in brief: as §1

Cell Line	relative viability ([1]; first compound 0.001 µM)	relative viability ([1]; first compound 0.003162 µM)	relative viability ([1]; first compound 0.01 µM)	relative viability ([1]; first compound 0.1 µM)	relative viability ([2]; first compound 0.002 µM)	relative viability ([2]; first compound 0.006325 µM)	relative viability ([2]; first compound 0.02 µM)	relative viability ([2]; first compound 0.06325 µM)	relative viability ([3]; first compound 0.002 µM)	relative viability ([3]; first compound 0.006325 µM)	relative viability ([3]; first compound 0.02 µM)	relative viability ([3]; first compound 0.06325 µM)	relative viability ([1]; first compound 0.03162 µM)	relative viability ([4]; first compound 0.002 µM)	relative viability ([4]; first compound 0.006325 µM)	relative viability ([4]; first compound 0.02 µM)	relative viability ([4]; first compound 0.06325 µM)
NCI-H1650	0.189	0.782	0.579	0.686	0.33	0.468	0.485	0.266	0.781	0.699	0.491	0.194					
SW 1573	1.03	1.09	1.24	1.21	0.132	0.155	0.0846	0.0818	0.5	0.409	0.21	0.0835	1.01	0.73	0.657	0.875	0.723
NCI-H1703	1.18	0.432	0.379	0.315					0.499	0.403	0.346	0.387	0.216	0.292	0.394	0.373	0.339
NCI-H2087	0.665	0.906	1	0.935	0.253	0.23	0.253	0.219	0.547	0.589	0.586	0.49	1.09	0.903	1.06	1.03	0.822
HCC-15	0.652	0.795	0.859	0.767	0.4	0.369	0.472	0.251	0.668	0.763	0.696	0.666	0.791	0.96	0.826	0.927	0.879
NCI-H1915	0.939	0.931	0.938	1.04	0.393	0.458	0.444	0.36	0.26	0.259	0.278	0.254	0.965	1.06	1.01	1.08	0.975
Calu-6	1.02	0.986	1.15	1.09					0.544	0.586	0.294	0.129	0.815	0.937	0.578	0.309	0.252
NCI-H2342					0.477	0.566	0.541	0.479	0.356	0.386	0.473	0.445					
NCI-H522					0.522	0.557	0.599	0.582	0.727	0.646	0.594	0.612					
NCI-H1792	0.796	0.853	0.969	0.932					0.382	0.253	0.502	0.454	0.866	0.67	0.73	0.703	0.759
NCI-H1563	0.697	0.824	0.935	0.897										0.916	0.977	0.895	0.902
A549	0.919	0.912	0.998	0.99					0.232	0.313	0.376	0.324	0.59	0.673	0.759	0.838	0.35
NCI-H1623					0.434	0.461	0.431	0.425									
